From patent US11807644B2 (PMV Pharmaceuticals, Inc., priority 2020, dated 2023)

Target: T1, recombinant His-tag Y220C p53 DBD protein (Homo sapiens, UniProt P04637, Y220C)
T1 construct: recombinant His-tag Y220C p53 DBD protein (amino acids #˜94-312)
Assay: In vitro DNA binding activity assay (TR-FRET): binding of His-tag Y220C p53 DBD to biotin-labeled consensus DNA
Assay type: biochemical
Details: SC150 = concentration to increase DNA binding by […], His-tag Y220C p53 DBD, biotin-labeled consensus DNA

Structure (SMILES)	Y220C SC150 (μM)
O=C(NCc1nc(-c2cc3c(NC4CCNC4)cccc3n2CC(F)(F)F)no1)C1CC1 (racemic) [Compound 167B, (+/−)-N-[(3-{4-[(pyrrolidin-3-yl)amino]-1-(2,2,2-trifluoroethyl)-1H-indol-2-yl}-1,2,4-oxadiazol-5-yl)methyl]cyclopropanecarboxamide]	* (* = 0 μM ≤ SC150 < 0.1 μM)
CN1CCC(Nc2cccc3c2cc(-c2noc(CNC(=O)C4CC4)n2)n3CC(F)(F)F)C1 (racemic) [Compound 169B, (+/−)-N-[(3-{4-[(1-methylpyrrolidin-3-yl)amino]-1-(2,2,2-trifluoroethyl)-1H-indol-2-yl}-1,2,4-oxadiazol-5-yl)methyl]cyclopropanecarboxamide]	* (* = 0 μM ≤ SC150 < 0.1 μM)
CN1CC[C@@H](Nc2cccc3c2cc(-c2noc(CNC(=O)C4CC4)n2)n3CC(F)(F)F)[C@@H](F)C1 (racemic) [Compound 171B, (+/−)-N-{[3-(4-{[(3R,4S)-3-fluoro-1-methylpiperidin-4-yl]amino}-1-(2,2,2-trifluoroethyl)-1H-indol-2-yl)-1,2,4-oxadiazol-5-yl]methyl}cyclopropanecarboxamide]	* (* = 0 μM ≤ SC150 < 0.1 μM)
CN1CC[C@@H](Nc2cccc3c2cc(-c2noc(CNC(=O)c4ccccc4)n2)n3CC(F)(F)F)[C@@H](F)C1 (racemic) [Compound 172B, (+/−)-N-{[3-(4-{[(3R,4S)-3-fluoro-1-methylpiperidin-4-yl]amino}-1-(2,2,2-trifluoroethyl)-1H-indol-2-yl)-1,2,4-oxadiazol-5-yl]methyl}benzamide]	* (* = 0 μM ≤ SC150 < 0.1 μM)
CN1CC[C@@H](Nc2cccc3c2cc(-c2noc(CNC(=O)c4cccs4)n2)n3CC(F)(F)F)[C@@H](F)C1 (racemic) [Compound 175B, (+/−)-N-{[3-(4-{[(3R,4S)-3-fluoro-1-methylpiperidin-4-yl]amino}-1-(2,2,2-trifluoroethyl)-1H-indol-2-yl)-1,2,4-oxadiazol-5-yl]methyl}thiophene-2-carboxamide]	* (* = 0 μM ≤ SC150 < 0.1 μM)
CN1CC[C@@H](Nc2cccc3c2cc(-c2noc(CNC(=O)c4ccsc4)n2)n3CC(F)(F)F)[C@@H](F)C1 (racemic) [Compound 176B, (+/−)-N-{[3-(4-{[(3R,4S)-3-fluoro-1-methylpiperidin-4-yl]amino}-1-(2,2,2-trifluoroethyl)-1H-indol-2-yl)-1,2,4-oxadiazol-5-yl]methyl}thiophene-3-carboxamide]	* (* = 0 μM ≤ SC150 < 0.1 μM)
CN1CC[C@@H](Nc2cccc3c2cc(-c2noc(CNc4ccc(S(C)(=O)=O)cc4)n2)n3CC(F)(F)F)[C@@H](F)C1 (racemic) [Compound 177B, (+/−)-N-[(3R,4S)-3-fluoro-1-methylpiperidin-4-yl]-2-(5-{[(4-methanesulfonylphenyl)amino]methyl}-1,2,4-oxadiazol-3-yl)-1-(2,2,2-trifluoroethyl)-1H-indol-4-amine]	* (* = 0 μM ≤ SC150 < 0.1 μM)
CCn1ccc(C(=O)NCc2nc(-c3cc4c(N[C@@H]5CCN(C)C[C@@H]5F)cccc4n3CC(F)(F)F)no2)c1 (racemic) [Compound 179B, (+/−)-1-ethyl-N-{[3-(4-{[(3R,4S)-3-fluoro-1-methylpiperidin-4-yl]amino}-1-(2,2,2-trifluoroethyl)-1H-indol-2-yl)-1,2,4-oxadiazol-5-yl]methyl}-1H-pyrrole-3-carboxamide]	* (* = 0 μM ≤ SC150 < 0.1 μM)
CN1CC[C@@H](Nc2cccc3c2cc(-c2noc(CNC(=O)[C@H]4C[C@@H]4c4ccccc4)n2)n3CC(F)(F)F)[C@@H](F)C1 (racemic) [Compound 180B, (+/−)-(1R,2R)-N-{[3-(4-{[(3R,4S)-3-fluoro-1-methylpiperidin-4-yl]amino}-1-(2,2,2-trifluoroethyl)-1H-indol-2-yl)-1,2,4-oxadiazol-5-yl]methyl}-2-phenylcyclopropane-1-carboxamide]	* (* = 0 μM ≤ SC150 < 0.1 μM)
COc1cc(S(C)(=O)=O)ccc1NCc1nc(-c2cc3c(N[C@@H]4CCN(C)C[C@@H]4F)cccc3n2CC(F)(F)F)no1 (racemic) [Compound 183B, (+/−)-N-[(3R,4S)-3-fluoro-1-methylpiperidin-4-yl]-2-(5-{[(4-methanesulfonyl-2-methoxyphenyl)amino]methyl}-1,2,4-oxadiazol-3-yl)-1-(2,2,2-trifluoroethyl)-1H-indol-4-amine]	* (* = 0 μM ≤ SC150 < 0.1 μM)
CN1CC[C@@H](Nc2cccc3c2cc(-c2noc(CNC(=O)c4ccn(C(C)(C)C)c4)n2)n3CC(F)(F)F)[C@@H](F)C1 (racemic) [Compound 184B, (+/−)-tert-butyl-N-{[3-(4-{[(3R,4S)-3-fluoro-1-methylpiperidin-4-yl]amino}-1-(2,2,2-trifluoroethyl)-1H-indol-2-yl)-1,2,4-oxadiazol-5-yl]methyl}-1H-pyrrole-3-carboxamide]	* (* = 0 μM ≤ SC150 < 0.1 μM)
CN1CC[C@@H](Nc2cccc3c2cc(-c2noc(CNC(=O)[C@@H]4C[C@H]4c4ccccc4)n2)n3CC(F)(F)F)[C@@H](F)C1 (racemic) [Compound 185B]	* (* = 0 μM ≤ SC150 < 0.1 μM)
COc1cc(S(C)(=O)=O)ccc1NCc1nc(-c2cc3c(N[C@@H]4CCNC[C@@H]4F)cccc3n2CC(F)(F)F)no1 (racemic) [Compound 188B, (+/−)-N-[(3R,4S)-3-fluoropiperidin-4-yl]-2-(5-{[(4-methanesulfonyl-2-methoxyphenyl)amino]methyl}-1,2,4-oxadiazol-3-yl)-1-(2,2,2-trifluoroethyl)-1H-indol-4-amine]	* (* = 0 μM ≤ SC150 < 0.1 μM)
CN(Cc1nc(-c2cc3c(N[C@@H]4CCNC[C@@H]4F)cccc3n2CC(F)(F)F)no1)c1cn[nH]c1 (racemic) [Compound 191B, (+/−)-N-[(3R,4S)-3-fluoropiperidin-4-yl]-2-(5-{[methyl(1H-pyrazol-4-yl)amino]methyl}-1,2,4-oxadiazol-3-yl)-1-(2,2,2-trifluoroethyl)-1H-indol-4-amine]	** (** = 0.1 μM ≤ SC150 < 0.5 μM)
CN1CC[C@@H](Nc2cccc3c2cc(-c2noc(CN(C)c4cn[nH]c4)n2)n3CC(F)(F)F)[C@@H](F)C1 (racemic) [Compound 192B, (+/−)-N-[(3R,4S)-3-fluoro-1-methylpiperidin-4-yl]-2-(5-{[methyl(1H-pyrazol-4-yl)amino]methyl}-1,2,4-oxadiazol-3-yl)-1-(2,2,2-trifluoroethyl)-1H-indol-4-amine]	* (* = 0 μM ≤ SC150 < 0.1 μM)

Now from value to molecule:

Y220C SC150 (μM)	Structure (SMILES)
* (* = 0 μM ≤ SC150 < 0.1 μM)	CN1CC[C@@H](Nc2cccc3c2cc(-c2noc(CNC(=O)[C@H]4C[C@@H]4C#N)n2)n3CC(F)(F)F)[C@@H](F)C1 (racemic) [Compound 193B, (1RS,2RS)-2-cyano-N-{[3-(4-{[(3S,4R)-3-fluoro-1-methylpiperidin-4-yl]amino}-1-(2,2,2-trifluoroethyl)-1H-indol-2-yl)-1,2,4-oxadiazol-5-yl]methyl}cyclopropane-1-carboxamide]
* (* = 0 μM ≤ SC150 < 0.1 μM)	CN1CC[C@@H](Nc2cccc3c2cc(-c2nc(CNC(=O)C4CC4)no2)n3CC(F)(F)F)[C@@H](F)C1 (racemic) [Compound 275B, (+/−)-N-{[5-(4-{[(3R,4S)-3-fluoro-1-methylpiperidin-4-yl]amino}-1-(2,2,2-trifluoroethyl)-1H-indol-2-yl)-1,2,4-oxadiazol-3-yl]methyl}cyclopropanecarboxamide]
* (* = 0 μM ≤ SC150 < 0.1 μM)	CN1CC[C@@H](Nc2cccc3c2cc(-c2nc(CNC(=O)c4ccccc4)no2)n3CC(F)(F)F)[C@@H](F)C1 (racemic) [Compound 276B, (+/−)-N-{[5-(4-{[(3R,4S)-3-fluoro-1-methylpiperidin-4-yl]amino}-1-(2,2,2-trifluoroethyl)-1H-indol-2-yl)-1,2,4-oxadiazol-3-yl]methyl}benzamide]
* (* = 0 μM ≤ SC150 < 0.1 μM)	CN1CC[C@@H](Nc2cccc3c2cc(-c2nc(CNC(=O)c4cccs4)no2)n3CC(F)(F)F)[C@@H](F)C1 (racemic) [Compound 277B, (+/−)-N-{[5-(4-{[(3R,4S)-3-fluoro-1-methylpiperidin-4-yl]amino}-1-(2,2,2-trifluoroethyl)-1H-indol-2-yl)-1,2,4-oxadiazol-3-yl]methyl}thiophene-2-carboxamide]
* (* = 0 μM ≤ SC150 < 0.1 μM)	CN1CC[C@@H](Nc2cccc3c2cc(-c2nc(CNC(=O)c4ccsc4)no2)n3CC(F)(F)F)[C@@H](F)C1 (racemic) [Compound 278B, (+/−)-N-{[5-(4-{[(3R,4S)-3-fluoro-1-methylpiperidin-4-yl]amino}-1-(2,2,2-trifluoroethyl)-1H-indol-2-yl)-1,2,4-oxadiazol-3-yl]methyl}thiophene-3-carboxamide]
* (* = 0 μM ≤ SC150 < 0.1 μM)	CN1CC[C@@H](Nc2cccc3c2cc(-c2nc(CNC(=O)c4cncs4)no2)n3CC(F)(F)F)[C@@H](F)C1 (racemic) [Compound 279B, (+/−)-N-{[5-(4-{[(3R,4S)-3-fluoro-1-methylpiperidin-4-yl]amino}-1-(2,2,2-trifluoroethyl)-1H-indol-2-yl)-1,2,4-oxadiazol-3-yl]methyl}-1,3-thiazole-5-carboxamide]
** (** = 0.1 μM ≤ SC150 < 0.5 μM)	CC(C)(C)n1ccc(C(=O)NCc2nc(-c3cc4c(N[C@@H]5CCCC[C@H]5F)cccc4n3CC(F)(F)F)no2)c1 (racemic) [Compound 340B]
* (* = 0 μM ≤ SC150 < 0.1 μM)	COCC(C)n1ccc(C(=O)NCc2nc(-c3cc4c(N[C@@H]5CCN(C(C)(C)C)C[C@@H]5F)cccc4n3CC(F)(F)F)no2)c1 (mixture of isomers) [Compound 357B, rac-N-{[3-(4-{[(3R,4S)-1-tert-butyl-3-fluoropiperidin-4-yl]amino}-1-(2,2,2-trifluoroethyl)-1H-indol-2-yl)-1,2,4-oxadiazol-5-yl]methyl}-1-(1-methoxypropan-2-yl)-1H-pyrrole-3-carboxamide]
